Source: US20100267561A1, “HERBICIDAL PYRIDAZINONE DERIVATIVES” (priority 2007, published 2010)

Experiments:
Type in all cases: in vivo
[1] = test system: rice flatsedge (Cyperus iria); test: Test D flooded paddy plant response; details: Flood, scale 0 to 100 (0 no effect, 100 complete control), 21 days
Text: (§1) Three plastic pots (ca. 16-cm diameter) for each application rate were partially filled with sterilized Tama silt loam soil comprising a 35:50:15 ratio of sand, silt and clay and 2.6% organic matter. Separate plantings for each of the three pots were as follows. Seeds from the U.S. of ducksalad (Heteranthera limosa), umbrella sedge (Cyperus difformis) and purple redstem (Ammannia coccinea), were planted into one 16-cm pot for each rate. Seeds from the U.S. of rice flatsedge (Cyperus iria), bearded (Brdd.) sprangletop (Leptochloa fascicularis), one stand of 9 or 10 water-seeded rice seedlings (Oryza sativa cv. ‘Japonica—M202’), and one stand of 6 transplanted rice seedlings (Oryza sativa cv. ‘Japonica—M202’) were planted into one 16-cm pot for each rate. Seeds from the U.S. of barnyardgrass (Echinochloa crus-galli), late watergrass (Echinochloa oryzicola), early watergrass (Echinochloa oryzoides) and junglerice (Echinochloa colona) were planted into one 16-cm pot for each rate. Plantings were sequential so that crop and weed species were at the 2.0 to 2.5-leaf stage at time of treatment.
(§2) Potted plants were grown in a greenhouse with day/night temperature settings of 30/27° C., and supplemental balanced lighting was provided to maintain a 16-hour photoperiod. Test pots were maintained in the greenhouse until test completion.
(§3) At time of treatment, test pots were flooded to 3 cm above the soil surface, treated by application of test compounds directly to the paddy water, and then maintained at that water depth for the duration of the test. Effects of treatments on rice and weeds were visually evaluated by comparison to untreated controls after 21 days. Plant response ratings, summarized in Table D, are based on a scale of 0 to 100 where 0 is no effect and 100 is complete control. A dash (-) response means no test result.

[2] = test system: water-seeded rice seedlings (Oryza sativa cv. ‘Japonica—M202’); test: Test D flooded paddy plant response; details: Flood, scale 0 to 100 (0 no effect, 100 complete control), 21 days
Text: as §1, §2, §3

[3] = test system: barnyardgrass (Echinochloa crus-galli); test: Test D flooded paddy plant response; details: Flood, scale 0 to 100 (0 no effect, 100 complete control), 21 days
Text: as §1, §2, §3

[4] = test system: common sowthistle (Sonchus oleraceous); test: Test E pre-/postemergence plant response; details: scale 0 to 100
Procedure, shortened: (§4)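 Seeds were planted and treated preemergence with compound formulated in a non-phytotoxic solvent mixture containing surfactant; postemergence sprays in the same formulation went onto plants 2 to 18 cm tall (1- to 4-leaf stage). After 14 to 21 days in a greenhouse, injury versus untreated controls was rated visually, 0 (no effect) to 100 (complete control).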

[5] = test system: Russian thistle (Salsola kali); test: Test E pre-/postemergence plant response; details: Preemergence, scale 0 to 100
Procedure, shortened: as §4

[6] = test system: common chickweed (Stellaria media); test: Test E pre-/postemergence plant response; details: scale 0 to 100
Procedure, shortened: as §4

kochia (Kochia scoparia) = test: Test E pre-/postemergence plant response; details: scale 0 to 100
Procedure, shortened: as §4

[7] = test system: Virginia (V.) dayflower (Commelina virginica); test: Test E pre-/postemergence plant response; details: scale 0 to 100
Procedure, shortened: as §4

[8] = test system: prickly sida (Sida spinosa); test: Test E pre-/postemergence plant response; details: scale 0 to 100
Procedure, shortened: as §4

CCCc1cc(-c2ccc(Cl)cc2)nn1-c1c(O)cnn(C)c1=O [Compound 43]
Plant response rating, Flatsedge, Rice ([1]; 16 g ai/ha): 0 | Plant response rating, Flatsedge, Rice ([1]; 32 g ai/ha): 0 | Plant response rating, Flatsedge, Rice ([1]; 64 g ai/ha): 0 | Plant response rating, Flatsedge, Rice ([1]; 125 g ai/ha): 0 | Plant response rating, Flatsedge, Rice ([1]; 250 g ai/ha): 0 | Plant response rating, Rice, Water Seeded ([2]; 16 g ai/ha): 0 | Plant response rating, Rice, Water Seeded ([2]; 32 g ai/ha): 0 | Plant response rating, Rice, Water Seeded ([2]; 64 g ai/ha): 0 | Plant response rating, Rice, Water Seeded ([2]; 125 g ai/ha): 30 | Plant response rating, Rice, Water Seeded ([2]; 250 g ai/ha): 35 | Plant response rating, Barnyardgrass ([3]; 16 g ai/ha): 0 | Plant response rating, Barnyardgrass ([3]; 32 g ai/ha): 20 | Plant response rating, Barnyardgrass ([3]; 64 g ai/ha): 60 | Plant response rating, Barnyardgrass ([3]; 125 g ai/ha): 100 | Plant response rating, Barnyardgrass ([3]; 250 g ai/ha): 100 | Plant response rating, Sowthistle ([4]; 16 g ai/ha, Preemergence): 0 | Plant response rating, Sowthistle ([4]; 31 g ai/ha, Preemergence): 0 | Plant response rating, Sowthistle ([4]; 62 g ai/ha, Preemergence): 0 | Plant response rating, Sowthistle ([4]; Postemergence, 8 g ai/ha): 0 | Plant response rating, Sowthistle ([4]; Postemergence, 16 g ai/ha): 0 | Plant response rating, Sowthistle ([4]; Postemergence, 31 g ai/ha): 0 | Plant response rating, Sowthistle ([4]; Postemergence, 62 g ai/ha): 0 | Plant response rating, Thistle, Russian ([5]; 16 g ai/ha): 0 | Plant response rating, Thistle, Russian ([5]; 31 g ai/ha): 0 | Plant response rating, Thistle, Russian ([5]; 62 g ai/ha): 0 | Plant response rating, Chickweed ([6]; 16 g ai/ha, Preemergence): 0 | Plant response rating, Chickweed ([6]; 31 g ai/ha, Preemergence): 0 | Plant response rating, Chickweed ([6]; 62 g ai/ha, Preemergence): 0 | Plant response rating, Kochia (kochia (Kochia scoparia); 16 g ai/ha, Preemergence): 0 | Plant response rating, Kochia (kochia (Kochia scoparia); 31 g ai/ha, Preemergence): 0 | Plant response rating, Kochia (kochia (Kochia scoparia); 62 g ai/ha, Preemergence): 0 | Plant response rating, Dayflower, V. ([7]; 16 g ai/ha, Preemergence): 0 | Plant response rating, Dayflower, V. ([7]; 31 g ai/ha, Preemergence): 0 | Plant response rating, Dayflower, V. ([7]; 62 g ai/ha, Preemergence): 0 | Plant response rating, Dayflower, V. ([7]; Postemergence, 8 g ai/ha): 0 | Plant response rating, Dayflower, V. ([7]; Postemergence, 16 g ai/ha): 0 | Plant response rating, Dayflower, V. ([7]; Postemergence, 31 g ai/ha): 0 | Plant response rating, Dayflower, V. ([7]; Postemergence, 62 g ai/ha): 0 | Plant response rating, Prickly Sida ([8]; 16 g ai/ha, Preemergence): 0 | Plant response rating, Prickly Sida ([8]; 31 g ai/ha, Preemergence): 0 | Plant response rating, Prickly Sida ([8]; 62 g ai/ha, Preemergence): 0 | Plant response rating, Prickly Sida ([8]; Postemergence, 8 g ai/ha): 0 | Plant response rating, Prickly Sida ([8]; Postemergence, 16 g ai/ha): 0 | Plant response rating, Prickly Sida ([8]; Postemergence, 31 g ai/ha): 0 | Plant response rating, Prickly Sida ([8]; Postemergence, 62 g ai/ha): 0

CCc1cc(-c2ccc(C(F)(F)F)cc2)nn1-c1c(OC(=O)OC(C)C)cnn(C)c1=O [Compound 12]
Plant response rating, Sowthistle ([4]; 4 g ai/ha, Postemergence): 0 | Plant response rating, Sowthistle ([4]; Postemergence, 8 g ai/ha): 0 | Plant response rating, Sowthistle ([4]; Postemergence, 31 g ai/ha): 0 | Plant response rating, Sowthistle ([4]; Preemergence, 4 g ai/ha): 0 | Plant response rating, Thistle, Russian ([5]; 4 g ai/ha): 0 | Plant response rating, Chickweed ([6]; 4 g ai/ha, Postemergence): 0 | Plant response rating, Chickweed ([6]; Postemergence, 8 g ai/ha): 0 | Plant response rating, Chickweed ([6]; Postemergence, 31 g ai/ha): 0 | Plant response rating, Kochia (kochia (Kochia scoparia); 4 g ai/ha, Postemergence): 0 | Plant response rating, Kochia (kochia (Kochia scoparia); 31 g ai/ha, Preemergence): 0 | Plant response rating, Kochia (kochia (Kochia scoparia); Postemergence, 8 g ai/ha): 0 | Plant response rating, Kochia (kochia (Kochia scoparia); Postemergence, 31 g ai/ha): 0 | Plant response rating, Kochia (kochia (Kochia scoparia); Preemergence, 4 g ai/ha): 0 | Plant response rating, Dayflower, V. ([7]; 4 g ai/ha, Postemergence): 0 | Plant response rating, Dayflower, V. ([7]; 8 g ai/ha, Preemergence): 0 | Plant response rating, Dayflower, V. ([7]; 31 g ai/ha, Preemergence): 0 | Plant response rating, Dayflower, V. ([7]; Postemergence, 8 g ai/ha): 0 | Plant response rating, Dayflower, V. ([7]; Postemergence, 31 g ai/ha): 0 | Plant response rating, Dayflower, V. ([7]; Preemergence, 4 g ai/ha): 0 | Plant response rating, Prickly Sida ([8]; 4 g ai/ha, Postemergence): 0 | Plant response rating, Prickly Sida ([8]; 31 g ai/ha, Preemergence): 0 | Plant response rating, Prickly Sida ([8]; Postemergence, 8 g ai/ha): 0 | Plant response rating, Prickly Sida ([8]; Postemergence, 31 g ai/ha): 0 | Plant response rating, Prickly Sida ([8]; Preemergence, 4 g ai/ha): 0
